Measurements from patent US20100168050A1, “COMPOUNDS HAVING ANTIANGIOGENIC ACTIVITY” (MEDESTEA INTERNAZIONALE S.P.A, priority 2004, published 2010).

Experiments:
HUVEC = HUVEC apoptosis/necrosis, annexin V and propidium iodide staining; type: cell-based, human; settings: ATP 3 mM
Text: It is possible that the inhibition of the ATP-dependent pathway can induce the shift to another metabolic activity, as the glycolysis. […] The block of the HUVEC proliferation is further evidenced by the absence of cell apoptosis due to the treatment of the cells with the tested compounds, as reported in the FIG. 9 (the results are representative of 5 experiments). Only the treatment with ATP was able to induce about 4.5% PI positive, e.g. necrotic cells.
In the second series of experiments, we studied the differences in the apoptosis induction on human promyelocytic leukemia HL60 cells by ATP and by the inhibitors of the P2X7 receptors. Apoptotic cells and necrotic cells were analyzed by staining the cells with annexin V and propidium iodide (PI) (BD Pharmingen apoptosis kit, San Diego, Calif.). Briefly, an aliquot of 10^5 cells was incubated with annexin V-fluorescein isothiocyanate (FITC) and PI for 15 minutes at room temperature in the dark. The cells were immediately analyzed by FACScalibur (Becton Dickinson, Heidelberg, Germany). The emission/excitation wavelengths were 530/488 nm for annexin V FITC (FL1) and 640 nm/488 nm for PI (FL2). The necrotic cells were annexin V- and PI-positive, whereas apoptotic cells were annexin V-positive and PI-negative. The percentage of cells stained in each quadrant was quantified using the cellQuest software (BD Bioscience, San Josew, Calif.). […]

[1] = test system: human umbilical vein endothelial cells (HUVEC); experiment: HUVEC cell growing number, crystal violet absorbance at 595 nm; type: cell-based
Experimental: HUVEC were isolated from human umbilical cord by collagenase treatment and cultured in 1% gelatine-coated flasks using endotoxin-free Medium 199, containing 20% heat-inactivated fetal bovine serum, 1% bovine retinal-derived growth factor, 90 microg/ml heparin, 100 IU/ml penicillin and 100 microg/ml streptomycin. All experiments were carried out with HUVEc at the passage 1-4.
(§1) We used oATP at the concentration of 500 microM. HUVEC were treated with oATP over night, washed and fixed with glutaraldeide 2% in PBS. The cells were colored with crystal violet 0.1%, washed and dried. The dye solubilization was performed with acetic acid 10% and the absorbance was measured spectrophotometrically at 595 nm, using a microplate reader. The optical density was proportional to the number of cells.
as §1, with “In” for “We used oATP at”, “first series” for “concentration”, “experiments we studied the proliferation of human umbilical vein endothelial cells (HUVEC), obtained as previously described (1). The” for “500 microM.”, “each of the compounds for 36 hours,” for “oATP over night,”

[2] = test system: rat paw inflammation (CFA); settings: WO 02/11737; cited from earlier work
[3] = test system: human promyelocytic leukemia HL60 cells; experiment: HL60 apoptosis/necrosis, annexin V-FITC and PI staining; type: cell-based; settings: oATP 300 microM versus PPADS 50 microM and KN62 10 microM
Experimental: In the second series of experiments, we studied the differences in the apoptosis induction on human promyelocytic leukemia HL60 cells by ATP and by the inhibitors of the P2X7 receptors. Apoptotic cells and necrotic cells were analyzed by staining the cells with annexin V and propidium iodide (PI) (BD Pharmingen apoptosis kit, San Diego, Calif.). Briefly, an aliquot of 10^5 cells was incubated with annexin V-fluorescein isothiocyanate (FITC) and PI for 15 minutes at room temperature in the dark. The cells were immediately analyzed by FACScalibur (Becton Dickinson, Heidelberg, Germany). The emission/excitation wavelengths were 530/488 nm for annexin V FITC (FL1) and 640 nm/488 nm for PI (FL2). The necrotic cells were annexin V- and PI-positive, whereas apoptotic cells were annexin V-positive and PI-negative. The percentage of cells stained in each quadrant was quantified using the cellQuest software (BD Bioscience, San Josew, Calif.). […] FIG. 11 summarizes the effects of the different treatments on the apoptosis/necrosis induction in the HL60 cells.

[4] = test system: microglia cells expressing P22/P2X7; settings: Ferrari et al. 1997; cited from earlier work
RMA wt cells = experiment: Cell cycle analysis, PI staining, FACScan; type: cell-based, mouse
Experimental: RMA wt cells were treated with different concentrations of oATP for 24 and 48 hours, then fixed for at least four hours in ice-cold 70% ethanol. Cells were stained with a solution containing NP-40, RNase and PI and cell cycle distribution was detected using FACScan (Becton Dickinson, San Jose, Calif.) and analyzed with FCS-express software.
Cell cycle progression of RMA wt cell line treated with different concentrations of oATP for 24 or 48 hours.

[5] = test system: Human endothelial Cells (HUVEC); experiment: Proliferation assay, HUVEC counted in Burker chamber; type: cell-based
Experimental: Human endothelial Cells (HUVEC) were isolated from umbilical vein, counted and seeded in a constant number in a 96-well plate. The cells were cultured as described (Jaffe, E. A. (1984) Biology of Endothelial Cells, Martinus Nighoff Publisher, Boston, USA, pp. 1-260), with or without (control) VEGF (50 ng/ml), in the presence of o-ATP (100 μM), and o-ATP+VEGF. After 24 hours cultivation with or without stimulus, the cells were washed and counted with an optical microscope using a Burker chamber. The results are reported in FIG. 1 and represent the mean±SD of 10 experiments.

[6] = test system: TNFalpha receptor 1 (TNFR1) on HUVEC; experiment: Cytofluorometric assay of TNFalpha receptor expression on endothelial cells; type: cell-based, human
Text: In addition, oATP was cytofluorometrically assayed for its ability to modulate the expression of TNFalpha receptors on endothelial cells. As reported in the FIG. 9a, the use of human TNFalpha (100 U/ml) improved the expression of the TNFalpha receptor 1 (TNFR1) on HUVEC. […] However, oATP was able to downregulate the TNFalpha-induced increased expression of TNFR1.

[7] = test system: RMA cells (T-cell lymphoma); experiment: Tumor growth after subcutaneous RMA cell injection in C57BL/6 mice; type: in vivo, mouse
Text: RMA cells were derived from the Rausher leukemia virus-induced mouse T-cell lymphoma RBL-5 of B6 origin and maintained in RPMI 1640 medium, supplemented with fetal bovine serum, 1% penicillin/streptomycin and 1% glutamine (complete medium).
(§2) C57BL/6 female mice weighing about 18-20 g (8 week old) were used. The cells were washed twice with 0.9% NaCl and subcutaneously injected in each mouse in a volume of 100 microliters containing 7×10^4 cells. After 10 days from RMA cell injection, we treated the mice with oATP. Five groups of mice were studied (each of 7 mice): 1) controls, untreated; 2) locally (subcutaneously) (sc) treated with 0.5 mg of oATP; 3) locally (sc) treated with 1 mg oATP; 4) intraperitoneally treated with 1 mg oATP; 5) locally (sc) treated with 1 mg oATP for 3 days only.
(§3) The mice were observed until the 20th day from the tumor inoculation: they were weighed daily and the size of the tumor mass was daily measured.

[8] = test system: RMA wild type (wt) murine lymphoma T cell line; experiment: Cell apoptosis assay, annexin V/PI FACS; type: cell-based, mouse
Experimental: RMA wild type (wt) murine lymphoma T cell line (ATCC) was grown in RPMI 1640 supplemented with 10% heat inactivated fetal bovine serum, 100 U/ml penicillin, 100 microg/ml streptomycin.
Apoptosis was evaluated by FACS analysis, after staining with annexin-V FITC-conjugate to show the exposure of phosphatidyl serine on the external side of plasma membranes, and with propidium iodide (PI).
Two thousand RMA wt cells and lymphocytes were treated with or without different concentrations of oATP for 24 and 48 hours. The cells were then washed with PBS with Ca++ and Mg++ and stained.
Ten thousand cell/sample were analysed and the percentage of annexin V/PI positive cells was calculated with FCS-express software (DE NOVO Software).

[9] = test system: lymphocytes from buffy-coat (PMBC), activated or not with PHA; experiment: Cell apoptosis assay, annexin V/PI FACS; type: cell-based; settings: oATP at high concentrations
Experimental: Lymphocytes were obtained from a buffy-coat by a fycoll gradient and depleted from monocytes by adherence. Lymphocytes were activated with Phytohaemoagglutinin A mitogen (PHA). Apoptosis was evaluated by FACS analysis, after staining with annexin-V FITC-conjugate to show the exposure of phosphatidyl serine on the external side of plasma membranes, and with propidium iodide (PI). Two thousand RMA wt cells and lymphocytes were treated with or without different concentrations of oATP for 24 and 48 hours. The cells were then washed with PBS with Ca++ and Mg++ and stained. Ten thousand cell/sample were analysed and the percentage of annexin V/PI positive cells was calculated with FCS-express software (DE NOVO Software).

[10] = test system: PBMC transendothelial migration through a HUVEC monolayer; experiment: Transendothelial migration assay, PBMC through HUVEC monolayer; type: cell-based, human
Experimental: VEGF is a prototypic angiogenetic factor which induces endothelial cell proliferation, angiogenesis and capillary permeability. The latter is evidenced by the assay of transendothelial migration. It is known that VEGF increases transendothelial migration. Migration assay was performed using a Transwell double chamber system (5 micrometer polycarbonate membrane). HUVEC (5×10^4 cells/well) were seeded on the filter, in the presence or absence of TNFα (200 U/ml) and oATP 500 microM. Freshly obtained PMBC (peripheral blood mononuclear cells) by means of fycoll from buffy-coat were added in the upper compartment and allowed to migrate over night to the lower chamber which contained RPMI and 10% fetal calf serum. […] Data represent mean±SEM of 7 experiments.

macrophage cell lines = settings: Murgia et al. 1993; cited from earlier work
[11] = Body weight of RMA tumor-bearing mice during treatment; type: in vivo, mouse; settings: during the different oATP treatments (0.5 or 1 mg sc, 1 mg ip)
Experimental: as §2, §3

[12] = group 3: locally (sc) 1 mg oATP

Nc1ncnc2c1ncn2[C@@H]1O[C@H](COP(=O)(O)OP(=O)(O)OP(=O)(O)O)[C@@H](O)[C@H]1O [ATP]
PI positive, e.g. necrotic cells (HUVEC): about 4.5%

Nc1ncnc2c1ncn2[C@@H](C=O)O[C@@H](C=O)COP(=O)(O)OP(=O)(O)OP(=O)(O)O [oATP, adenosine-5′-triphosphate-2′,3′-dialdehyde]
cell growing number (HUVEC proliferation) ([1]; 36 hours, ATP 3 mM, oATP 300 microM, PPADS 50 microM, KN62 10 microM): maximal reduction
cell growing number (optical density) ([1]; oATP 500 microM over night): significantly reduced
effect on CFA-induced unilateral rat paw inflammation [2]: anti-inflammatory and analgesic effect
cell apoptosis induction on HL60 [3]: at better extent with respect to PPADS and KN62
IL-1β release (dependent on LPS) [4]: selectively inhibited
% G0/G1 (RMA wt cells; oATP 0.1 μM, 24 h): 48%
% G2/M (RMA wt cells; oATP 0.1 μM, 24 h): 19%
% S (RMA wt cells; oATP 0.1 μM, 24 h): 24%
% subG1 (RMA wt cells; oATP 0.1 μM, 24 h): 9%
% G0/G1 (RMA wt cells; oATP 0.1 μM, 48 h): 50%
% G2/M (RMA wt cells; oATP 0.1 μM, 48 h): 22%
% S (RMA wt cells; oATP 0.1 μM, 48 h): 24%
% subG1 (RMA wt cells; oATP 0.1 μM, 48 h): 4%
% G0/G1 (RMA wt cells; oATP 1 μM, 24 h): 38%
% G2/M (RMA wt cells; oATP 1 μM, 24 h): 10%
% S (RMA wt cells; oATP 1 μM, 24 h): 29%
% subG1 (RMA wt cells; oATP 1 μM, 24 h): 23%
% G0/G1 (RMA wt cells; oATP 1 μM, 48 h): 52%
% G2/M (RMA wt cells; oATP 1 μM, 48 h): 26%
% S (RMA wt cells; oATP 1 μM, 48 h): 19%
% subG1 (RMA wt cells; oATP 1 μM, 48 h): 3%
% G0/G1 (RMA wt cells; oATP 20 μM, 48 h): 50%
% G2/M (RMA wt cells; oATP 20 μM, 48 h): 19%
% S (RMA wt cells; oATP 20 μM, 48 h): 23%
% subG1 (RMA wt cells; oATP 20 μM, 48 h): 8%
% G0/G1 (RMA wt cells; oATP 0.1 mM, 24 h): 44%
% G2/M (RMA wt cells; oATP 0.1 mM, 24 h): 5%
% S (RMA wt cells; oATP 0.1 mM, 24 h): 20%
% subG1 (RMA wt cells; oATP 0.1 mM, 24 h): 31%
% G0/G1 (RMA wt cells; oATP 0.1 mM, 48 h): 33%
% G2/M (RMA wt cells; oATP 0.1 mM, 48 h): 20%
% S (RMA wt cells; oATP 0.1 mM, 48 h): 33%
% subG1 (RMA wt cells; oATP 0.1 mM, 48 h): 14%
% G0/G1 (RMA wt cells; oATP 1 mM, 24 h): 16%
% G2/M (RMA wt cells; oATP 1 mM, 24 h): 3%
% S (RMA wt cells; oATP 1 mM, 24 h): 6%
% subG1 (RMA wt cells; oATP 1 mM, 24 h): 75%
% G0/G1 (RMA wt cells; oATP 1 mM, 48 h): 44%
% G2/M (RMA wt cells; oATP 1 mM, 48 h): 7%
% S (RMA wt cells; oATP 1 mM, 48 h): 25%
% subG1 (RMA wt cells; oATP 1 mM, 48 h): 24%
effect on HUVEC proliferative capacity compared with vasostatin ([5]; in vitro, HUVEC): higher than that induced by vasostatin
proliferative capacity of HUVEC ([5]; o-ATP 100 μM, 24 hours, even in the presence of a mitogen (VEGF 50 ng/ml)): significant reduction
TNFalpha-induced increased expression of TNFR1 ([6]; human TNFalpha 100 U/ml plus oATP): downregulate
expression of TNFR1 on HUVEC ([6]; oATP alone): did not modify such expression
consistency of the tumor mass obtained in 20 days [7, 12]: less solid than the tumor mass obtained in the other groups
tumor growth at 20 days from RMA cell injection [7, 12]: less evident than that observed in the other groups
tumor mass (arbitrary units) ([7]; group 3: locally (sc) 1 mg oATP, three days from the beginning of the treatment (until the 14th day)): did not significantly grow
tumor mass (arbitrary units) ([7]; group 5: locally (sc) 1 mg oATP for 3 days only, three days from the beginning of the treatment): did not significantly grow
tumor growth ([7]; local continuous treatment with 1 mg oATP): significantly slowing the tumor growth
percentage of AnnexinV/PI positive cells ([8]; RMA wt, oATP 1 mM, 48 hours): strongly increases
apoptosis of RMA cells ([8]; oATP at high concentrations): able to induce apoptosis
apoptosis of lymphocytes [9]: not of lymphocytes
non-stimulated PBMC transendothelial migration ([10]; addition of oATP, no TNFα): inhibited
TNFα-induced transendothelial migration of PBMC ([10]; oATP 500 microM, TNFα 200 U/ml, over night): significantly reduces
ATP-induced permeabilization of the plasma membrane (macrophage cell lines): able to block
body weights of the mice [11]: No significant differences
